Test results as given in patent publication US7256201B2, “Selective estrogen receptor-β ligands” (AstraZeneca AB, priority 2000, dated 2007).

What was measured:
human recombinant ERβ = target: T1, human recombinant ERβ (Homo sapiens, UniProt Q92731); assay: Fluorescence polarization estrogen receptor (ERFP) binding assay, ERβ; settings: for Ki: competition with Fluormone ES2, IC50 converted to Ki by Kenakin formula, read-out: FP β-ER Ki; for FP Selectivity: ratio α-ER Ki / β-ER Ki
T1 construct: purchased PanVera (Madison, Wis.)
T1 sequence (Q92731 whole entry): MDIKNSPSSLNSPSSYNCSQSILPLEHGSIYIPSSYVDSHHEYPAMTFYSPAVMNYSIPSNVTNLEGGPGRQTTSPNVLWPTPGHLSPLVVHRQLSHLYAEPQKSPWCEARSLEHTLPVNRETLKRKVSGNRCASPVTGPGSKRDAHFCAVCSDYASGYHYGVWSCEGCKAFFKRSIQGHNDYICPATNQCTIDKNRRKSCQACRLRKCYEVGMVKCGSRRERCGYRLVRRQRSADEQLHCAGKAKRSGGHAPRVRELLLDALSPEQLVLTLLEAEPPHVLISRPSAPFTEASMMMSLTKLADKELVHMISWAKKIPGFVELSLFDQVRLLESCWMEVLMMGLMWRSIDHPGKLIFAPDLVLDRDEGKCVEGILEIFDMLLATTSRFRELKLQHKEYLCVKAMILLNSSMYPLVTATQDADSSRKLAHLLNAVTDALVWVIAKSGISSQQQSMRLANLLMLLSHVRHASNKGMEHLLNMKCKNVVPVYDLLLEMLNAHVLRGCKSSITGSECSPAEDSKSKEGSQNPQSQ
Method: (§1) A homogeneous mix-and-measure estrogen receptor (ER) binding assay which utilizes fluorescence polarization (FP) technology is used to identify compounds with affinity for the estrogen receptor. Purchased from PanVera (Madison, Wis.), assay reagents include purified human recombinant ERα, human recombinant ERβ, ES2 screening buffer (100 mM potassium phosphate, pH 7.4, 100 μg/mL bovine gamma globulin), and Fluormone™ ES2.
(§2) For competition binding experiments, dilutions of test compounds are prepared at 2× the final assay concentration in 0.2% DMSO in ES2 Screening buffer on TECAN Genosys, and 25 μL compound/well is dispensed into black Costar ½ volume 96-well plates. Dependent upon a lot specific Kd determination, 10-40 nM ERα or 10-40 nM ERβ and 1 nM Fluormone ES2 are then added to these plates in a final assay volume of 50 μL/well. Plates are gently shaken for at least 5 minutes to mix and incubated for at least 1 hr 45 minutes to achieve equilibrium. (Reaction mixtures are stable for up to 5 hours). After centrifugation to remove air bubbles, plates are read on an LJL Analyst or Acquest equipped with Criterion software at the following settings: Fluorescence Polarization Mode; Static Polarizer on Excitation Side; Dynamic Polarizer on Emission Side; Excitation λ=485×/−5 10 nm; Emission λ=520+/−12.5 nm.
(§3) Polarized fluorescence intensity values are collected and subsequently converted electronically to millipolarization (mp) values. Following data reduction and normalization with Excel and/or Prism software, % Ctrl values at the various test concentrations are used to obtain IC50 values via non-linear regression analysis of a four-parameter logistic equation.
(§4) Because ligand depletion is a consideration in this assay (˜40-60% input ES2 is bound in the assay), IC50 values are converted to Ki values through application of the Kenakin formula, as outlined in the reference below, rather than via the more routinely-used Cheng-Prusoff formula.

human recombinant ERα = target: T2, human recombinant ERα (Homo sapiens, UniProt P03372); assay: Fluorescence polarization estrogen receptor (ERFP) binding assay, ERα; settings: competition with Fluormone ES2; IC50 converted to Ki by Kenakin formula; read-out: FP α-ER Ki
T2 construct: purchased PanVera (Madison, Wis.)
T2 sequence (P03372 1-595): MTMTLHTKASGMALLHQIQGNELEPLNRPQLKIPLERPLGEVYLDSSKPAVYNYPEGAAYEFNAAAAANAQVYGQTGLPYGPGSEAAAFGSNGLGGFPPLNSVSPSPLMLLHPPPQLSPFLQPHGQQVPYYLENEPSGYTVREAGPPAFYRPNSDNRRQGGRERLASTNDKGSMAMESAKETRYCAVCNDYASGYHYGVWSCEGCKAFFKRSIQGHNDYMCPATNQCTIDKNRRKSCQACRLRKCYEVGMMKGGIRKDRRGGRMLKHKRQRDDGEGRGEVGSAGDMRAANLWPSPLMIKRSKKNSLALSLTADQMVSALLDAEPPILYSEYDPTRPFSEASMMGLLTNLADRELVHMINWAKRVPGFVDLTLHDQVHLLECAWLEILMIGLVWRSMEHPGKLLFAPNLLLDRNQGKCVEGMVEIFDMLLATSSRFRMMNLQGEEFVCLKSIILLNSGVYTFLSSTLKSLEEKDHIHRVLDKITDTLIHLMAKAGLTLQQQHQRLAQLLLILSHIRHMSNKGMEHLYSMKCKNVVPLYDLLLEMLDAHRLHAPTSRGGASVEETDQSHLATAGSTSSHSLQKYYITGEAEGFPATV
Method: as §1, §2, §3, §4

βER = target: T3, βER (Homo sapiens, UniProt Q92731); assay: Cell-based assay for ER transcriptional activity (ERE β-gal reporter), βER-transfected 293 cells; settings: for EC50 / ERE β-ER Max: 293 cells transfected with βER and ERE reporter; for ERE β-ER Max: maximal response, unit assumed; for ERE Selectivity: ratio α-ER EC50 / β-ER EC50
T3 construct: expressed in transfected cells; host or cells: 293 cells (Human Embryonic Kidney, ATCC CRL-1573)
T3 sequence (Q92731 54-530 limits assumed): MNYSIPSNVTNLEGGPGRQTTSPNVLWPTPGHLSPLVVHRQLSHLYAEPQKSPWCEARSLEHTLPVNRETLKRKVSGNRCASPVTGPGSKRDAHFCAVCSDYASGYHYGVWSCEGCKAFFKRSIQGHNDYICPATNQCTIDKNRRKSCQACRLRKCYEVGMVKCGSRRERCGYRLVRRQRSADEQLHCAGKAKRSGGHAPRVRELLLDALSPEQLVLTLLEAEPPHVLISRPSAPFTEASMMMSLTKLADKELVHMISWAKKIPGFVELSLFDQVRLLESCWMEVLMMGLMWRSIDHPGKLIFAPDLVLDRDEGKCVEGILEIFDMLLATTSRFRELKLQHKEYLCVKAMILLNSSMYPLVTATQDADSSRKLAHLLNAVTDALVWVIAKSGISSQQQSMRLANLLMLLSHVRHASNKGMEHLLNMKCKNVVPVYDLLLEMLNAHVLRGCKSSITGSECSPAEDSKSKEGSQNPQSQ
Method: (§5) ERs are ligand-dependent transcription factors that bind the promoter regions of genes at a consensus DNA sequence called the estrogen responsive element (ERE). The ER agonist or antagonist activity of a drug was determined by measuring the amount of reporter enzyme activity expressed from a plasmid under the control of an estrogen-responsive element when cells transiently transfected with ER and the reporter plasmid were exposed to drug. These experiments were conducted according to the following methods.
(§6) Estrogen Receptors alpha (αER, Gen Bank accession #M12674), and beta (βER, Gen Bank #X99101 were cloned into the expression vector pSG5 (Stratagene). A trimer of the vitellogenin-gene estrogen response element (vitERE) was synthesized as an oligonucleotide and attached to a beta-globin basal promoter in a construct named pERE3 gal. This response element and promoter were removed from pERE3 gal by digestion with the endonucleases SpeI (filled with Klenow fragment) and HindIII. This blunt/Hind III fragment was cloned into the β-galactosidase (β-gal) enhancer reporter plasmid (pBGALenh, Stratagene). αER and βER plasmids were purified using a the Endo Free Maxi Kit (Qiagen), and the DNA concentration and purity (A260/280 ratio) were determined spectrophotometrically (Pharmacia). Only DNA with A260/280 ratio of 1.8 and a concentration of >1 ug/uL was used for transfections.
(§7) All Transfections are performed in 293 cells (Human Embryonic Kidney cells ATCC #CRL-1573). Cells are grown in DMEM supplemented with 10% FBS, glutamine, sodium pyruvate and penicilin/streptomycin. Cells are grown to 70% confluency and split 1:4.
(§8) • 1. 293 cells are split the night before onto collagen I-coated 150 mm tissue-culture plates (Biocoat, Becton Dickinson #354551) at a density of 60-70% in DMEM Mediatech 17-205-CV) 10% charcoal-stripped FBS (biocell #6201-31). Approximately 1×10^7 cells/plate will yield 70% confluency. • 2. The next morning, 1 hour prior to transfection, the media is changed to fresh DMEM 10% FBS stripped and supplements. • 3. Transfections are performed using the Profection Kit (Promega #E1200). This kit is based on the calcium-phosphate-mediated transfection technique. Reagents are added in sterile polystyrene tubes in the following order:
(§9) Solution A • 15 μg αER or βER • 45 μg Reporter (pBGALenh or ERE3) • 1.5 mL Sterile Water • 186 μL CaCl2 • *Mix gently
(§10) Solution B • 1.5 mL 2× Hank's Buffered Salt Solution • 4. Using a vortex set on low, add solution A to solution B dropwise. The resulting solution should become milky in color. It is important to achieve thorough mixing. The solution is allowed to settle for 30 minutes, then vortexed before adding the solution to cells. • 5. Add the mixture to 150 mm plates dropwise. Mix well by rocking plates back and forth and side to side gently. After an hour, a very fine precipitate should be seen floating on and above cells under 20× magnification. If this precipitate is not observed, the transfection will not be effective. Incubate the cells for 12 hours. Receptor Stimulation: • 1. The day after transfection, cells are washed 2× with calcium- and magnesium-free Mg free PBS containing 1 mM EGTA (pH 7.6). Cells are trypsinized for 2 min with 3 mL of trypsin-EDTA. Trypsin is neutralized with DMEM 10% FCS. Cells are pelleted at 1000×g for 5 min. The cell pellet is then resuspended in 5 mL DMEM plus 2% phenol-red-free FCS supplemented with glutamine, pyruvate, and Penn/Strep. • 2. 50 μl of the resulting cell suspension is plated into each well of 96-well tissue culture dishes (Biocoat B&D #354407) using a multi-channel pipettor. The dishes have been previously loaded with 50 μL of DMSO-solubilized test compounds at twice the test concentration in DMEM. Data reported are either n=4 wells (single poke) and n=2 wells (9-point concentration-response curves). • 3. Cells are incubated overnight at 37° C. in the selected compounds. Reporter Assay: • 1. […]

αER = target: T4, αER (Homo sapiens, UniProt P03372); assay: Cell-based assay for ER transcriptional activity (ERE β-gal reporter), αER-transfected 293 cells; settings: 293 cells transfected with αER and ERE reporter; for ERE α-ER Max: maximal response, unit assumed; for EC50: read-out: ERE α-ER EC50
T4 construct: expressed in transfected cells; host or cells: 293 cells (Human Embryonic Kidney, ATCC CRL-1573)
T4 sequence (P03372 1-595): T2 sequence (P03372 1-595)
Method: as §5, §6, §7, §8, §9, §10

Row | Structure (SMILES) | Ki (human recombinant ERβ) [nM] | FP Selectivity (human recombinant ERβ) | Ki (human recombinant ERα) [nM] | EC50 (βER) [nM] | ERE β-ER Max (βER) [%] | ERE Selectivity (βER) | ERE α-ER Max (αER) [%] | EC50 (αER) [nM]
1 | Cc1ccc(N2CCc3cc(O)ccc3C2c2cccs2)cc1O (stereo not drawn) [Example 22, 2-(3-Hydroxy-4-methyl-phenyl)-1-thiophen-2-yl-1,2,3,4-tetrahydro-isoquinolin-6-ol] | 3.5 | 3.5 | 12 |  |  |  |  | 
2 | CSc1ccc(C2c3ccc(O)cc3CCN2c2ccc(O)cc2)cc1 (stereo not drawn) [Example 8, 2-(4-Hydroxyphenyl)-1-(4-methylsulfanylphenyl)-1,2,3,4-tetrahydroisoquinolin-6-ol] | 39 | 0.5 | 18 |  |  |  |  | 
3 | CCc1ccc(C2c3ccc(O)cc3CCN2c2ccc(O)cc2)cc1 (stereo not drawn) [Example 11, 1-(4-Ethylphenyl)-2-(4-hydroxyphenyl)-1,2,3,4-tetrahydroisoquinolin-6-ol] | 9 | 1.1 | 10 |  |  |  |  | 
4 | Oc1ccc(N2CCc3cc(O)ccc3C2)c(Cl)c1 [Example 2, 2-(2-Chloro-4hydroxyphenyl)-1,2,3,4-tetrahydroisoquinoline-6-ol] | 18 | 2.7 | 48 |  |  |  |  | 
5 | CCC1c2ccc(O)cc2CCN1c1ccc(O)cc1 (stereo not drawn) [Example 15, 1-Ethyl-2-(4-hydroxy-phenyl)-1,2,3,4-tetrahydro-isoquinolin-6-ol] | 18 | 3.3 | 59 | 23 | 51 | 43 | 37 | 1000
6 | CC1c2ccc(O)cc2CCN1c1ccc(O)cc1 (stereo not drawn) [Example 14, 2-(4-Hydroxy-phenyl)-1-methyl-1,2,3,4-tetrahydro-isoquinolin-6-ol] | 45 | 6.8 | 307 | 143 | 44 | 7.0 | 42 | 1000
7 | Oc1ccc(N2CCc3cc(O)ccc3C2Cc2ccccc2)cc1 (stereo not drawn) [Example 16, 1-Benzyl-2-(4-hydroxy-phenyl)-1,2,3,4-tetrahydro-isoquinolin-6-ol] | 18 | 0.8 | 15 |  |  |  |  | 
8 | Oc1ccc2c(c1)CCN(c1ccc(Cl)cc1Cl)C2 [Example 13, 2-(2,4-Dichloro-phenyl)-1,2,3,4-tetrahydro-isoquinolin-6-ol] | 32 | 1.8 | 55 |  | 69 |  | 89 | 
